Two molecules from US6763607B2, “Method for making homogeneous spray-dried solid amorphous drug dispersions utilizing modified spray-drying apparatus” (Pfizer Inc., priority 2002, dated 2004) can be followed below.

This series can be described thus: in vitro dissolution test (concentration enhancement) in PBS, microcentrifuge method. It is filed as physicochemical. As to conditions: PBS pH 6.5, 37° C. The protocol: For this test, samples containing 7.2 mg of Example 1 were added to microcentrifuge tubes, in duplicate. The tubes were placed in a 37° C. temperature-controlled chamber, and 1.8 mL PBS at pH 6.5 and 290 mOsm/kg was added. The samples were quickly mixed using a vortex mixer for about 60 seconds. The samples were centrifuged at 13,000 G at 37° C. for 1 minute. […] The contents of the tubes were mixed on the vortex mixer and allowed to stand undisturbed at 37° C. until the next sample was taken. […] Control 1 and crystalline Drug 1 were tested using the same procedure. The concentration of drug obtained in these samples were used to determine the values of the maximum concentration of drug in the first ninety minutes (Cmax90) and the area under the curve of drug concentration versus time in the first ninety minutes (AUC90). […] The physical properties of the dispersions of Example 3, Control C2 and crystalline Drug 2 alone were determined as Example 1 with the following exceptions. […] Samples were analyzed by HPLC, with absorbance at 297 nm (Hewlett Packard 1100 HPLC, Zorbax SB C18 column, 35% acetonitrile/65% H2O).

Where [1] appears, read: Drug 2, 2000 μg/mL if all of the drug had dissolved.

As for `CCOC(=O)N1c2ccc(C(F)(F)F)cc2C(N(Cc2cc(C(F)(F)F)cc(C(F)(F)F)c2)C(=O)OC)CC1CC` (stereo not drawn) [Crystalline Drug 1, 4-[(3,5-bis-trifluoromethyl-benzyl)-methoxycarbonyl-amino]-2-ethyl-6-trifluoromethyl-3,4-dihydro-2H-quinoline-1-carboxylic acid ethyl ester], the AUC90 (Drug 1, area under drug concentration versus time curve in the first ninety minutes) was under 88 µg·min/mL. Besides, where the note is “Drug 1, maximum concentration of drug in the first ninety minutes”, the Cmax90 was under 1 µg/mL. In addition, the “Drug 1 Concentration” value was 0 µg/mL (supernatant after centrifugation, time 0 min); under 1 µg/mL (time 4 min); under 1 µg/mL (time 10 min); under 1 µg/mL (time 20 min); under 1 µg/mL (time 40 min); under 1 µg/mL (time 90 min). Also, where the note is “time 1200 min”, the “Drug 1 Concentration” value was under 1 µg/mL. Besides, the “Drug 1 AUC” value is reported as 0 min-μg/ml (time 0 min); under 2 min-μg/ml (time 4 min); under 8 min-μg/ml (time 10 min); under 18 min-μg/ml (time 20 min); under 38 min-μg/ml (time 40 min); under 88 min-μg/ml (time 90 min). For the same molecule, the “Drug 1 AUC” value (time 1200 min) is <1,200 min-μg/ml.

Regarding `O=C(N[C@@H](Cc1ccccc1)[C@@H](O)C(=O)N1C[C@@H](O)[C@@H](O)C1)c1cc2cc(Cl)ccc2[nH]1` [Crystalline Drug 2, 5-chloro-1H-indole-2-carboxylic acid [(1S)-benzyl-(2R)-hydroxy-3-((3R,4S)-dihydroxy-pyrrolidin-1-yl-)-3-oxypropyl]amide], under setting [1], the AUC90 is listed as 12,800 min*μg/mL and the Cmax90 stood at 149 µg/mL.
